Assay: D90 particle size of atovaquone by Malvern Mastersizer
Type: physicochemical
Method: […]

[1] = Run 1, stir time 1 min, 30 mg in 900 mL purified water, polysorbate 80, 10 min sonication, 400 rpm

D90 particle size [1]	D90 particle size (Run 1, stir time 2 min)	D90 particle size (Run 1, stir time 3 min)	D90 particle size (Run 1, stir time 4 min)	D90 particle size (Run 1, stir time 5 min)	D90 particle size (Run 2, stir time 1 min)	D90 particle size (Run 2, stir time 2 min)	D90 particle size (Run 2, stir time 3 min)	D90 particle size (Run 2, stir time 4 min)	D90 particle size (Run 2, stir time 5 min)	D90 particle size (Run 3, stir time 1 min)	D90 particle size (Run 3, stir time 2 min)	D90 particle size (Run 3, stir time 3 min)	D90 particle size (Run 3, stir time 4 min)	D90 particle size (Run 3, stir time 5 min)	D90 particle size (Run 4, stir time 1 min)	D90 particle size (Run 4, stir time 2 min)	D90 particle size (Run 4, stir time 3 min)	D90 particle size (Run 4, stir time 4 min)	D90 particle size (Run 4, stir time 5 min)	Structure (SMILES)
4.651 microns	4.652 microns	4.652 microns	4.653 microns	4.651 microns	4.628 microns	4.628 microns	4.629 microns	4.631 microns	4.630 microns	4.836 microns	4.836 microns	4.837 microns	4.836 microns	4.984 microns	4.814 microns	4.814 microns	4.815 microns	4.814 microns	4.814 microns	O=C1C(O)=C([C@H]2CC[C@H](c3ccc(Cl)cc3)CC2)C(=O)c2ccccc21 [Example 4, trans-2-[4-(4-chlorophenyl)cyclohexyl]-3-hydroxy-1,4-naphthalenedione]
6.177 microns	6.176 microns	6.175 microns	6.176 microns	6.176 microns	6.258 microns	6.257 microns	6.258 microns	6.260 microns	6.259 microns	6.338 microns	6.339 microns	6.336 microns	6.339 microns	6.337 microns	6.572 microns	6.572 microns	6.572 microns	6.569 microns	6.571 microns	O=C1C(O)=C([C@H]2CC[C@H](c3ccc(Cl)cc3)CC2)C(=O)c2ccccc21 [Example 2, trans-2-[4-(4-chlorophenyl)cyclohexyl]-3-hydroxy-1,4-naphthalenedione]
5.088 microns	5.089 microns	5.090 microns	5.088 microns	5.088 microns	5.182 microns	5.183 microns	5.182 microns	5.183 microns	5.184 microns	5.049 microns	5.049 microns	5.048 microns	5.047 microns	5.048 microns	5.283 microns	5.282 microns	5.283 microns	5.284 microns	5.281 microns	O=C1C(O)=C([C@H]2CC[C@H](c3ccc(Cl)cc3)CC2)C(=O)c2ccccc21 [Example 1, trans-2-[4-(4-chlorophenyl)cyclohexyl]-3-hydroxy-1,4-naphthalenedione]
4.280 microns	4.280 microns	4.280 microns	4.280 microns	4.280 microns	4.260 microns	4.260 microns	4.261 microns	4.261 microns	4.260 microns	4.124 microns	4.124 microns	4.123 microns	4.123 microns	4.125 microns	4.285 microns	4.285 microns	4.286 microns	4.286 microns	4.286 microns	O=C1C(O)=C([C@H]2CC[C@H](c3ccc(Cl)cc3)CC2)C(=O)c2ccccc21 [Example 3, trans-2-[4-(4-chlorophenyl)cyclohexyl]-3-hydroxy-1,4-naphthalenedione]
7.971 microns	7.949 microns	8.215 microns	8.276 microns	7.948 microns	7.726 microns	7.723 microns	7.726 microns	7.727 microns	7.723 microns	7.978 microns	7.974 microns	7.977 microns	7.979 microns	7.973 microns	–	–	–	–	–	O=C1C(O)=C([C@H]2CC[C@H](c3ccc(Cl)cc3)CC2)C(=O)c2ccccc21 [Example 5, trans-2-[4-(4-chlorophenyl)cyclohexyl]-3-hydroxy-1,4-naphthalenedione]

From patent US20110206770A1, “ATOVAQUONE WITH A PARTICLE SIZE DIAMETER RANGE (D90) OF GREATER THAN 3 MICRONS TO ABOUT 10 MICRONS” (Alphapharm Pty. Ltd., priority 2008, published 2011)
